One data set concerns glypican-4. Nature of the data set: SPR, NT4 binding to recombinant glypican-4. The arrangement: species or system human. The following applies: rHSPG over immobilized NT4. The method, then: Experiments were performed on a Biacore T100 instrument (GE Healthcare). All materials were purchased from GE Healthcare unless otherwise specified. Full-length recombinant human HSPG were purchased from R&D Systems. Syndecan-3, syndecan-4, and glypican-3 were obtained from the mouse myeloma cell line (NS0), and glypican-4 was obtained from the Chinese Hamster Ovary cell line. The activity of syndecan-4, glypican-3, and glypican-4 was measured by the supplier as the ability of the immobilized protein to bind FGF-basic. The activity of syndecan-3 was measured by the supplier as the ability of the immobilized protein to inhibit adhesion of Saos-2 human osteosarcoma cells to human fibronectin.
NT4-biotin was captured on a CM5 sensor chip where streptavidin had previously been immobilized by standard amine coupling. Briefly, the sensor chip surface was activated with a mixture of 0.1 M 1-ethyl-3(3-dimethylaminopropyl)-carbodiimide (EDC) and 0.4 M N-hydroxyl succinimide (NHS) for 7 min at a flow rate of 5 μl/min. Streptavidin was injected over the surface for 7 min, and finally, 1 M ethanolamine pH 8.5 was used to block any activated carboxyl groups. […]
Kinetics were analyzed with the Biacore T100 evaluation 1.1.1 software using the 1:1 Langmuir model to fit the curves.

Data set [1] has as its system HT-29, PANC-1, MCF-7, and MDA-MB-231 cells. The data set is described as follows: NT4 cell binding versus sulfatase expression in cell panel. The class given is cell-based, human. The note with it: SULF-1 and SULF-2 expression (RT-PCR; SULF-1 also Western blot) versus flow cytometry binding. On the procedure:
PANC-1 human pancreas adenocarcinoma, HT-29 human colon adenocarcinoma, and MCF-7 and MDA-MB-231 human breast adenocarcinoma cells were grown in the recommended American Type Culture Collection (ATCC) media, supplemented with 10% fetal calf serum, 200 μg/ml glutamine, 100 μg/ml streptomycin, 60 μg/ml penicillin, and maintained at 37°C, 5% CO2. Cell lines were purchased from ATCC, and cell profiling was analyzed to authenticate human cell lines (BMR Genomics). All experiments were performed using 2 × 10^5 cells in 96-well U-bottom plates. All dilutions were performed in phosphate-buffered saline (PBS), containing 5 mM EDTA and 1% bovine serum albumin (BSA). […] P values were calculated using a two-tailed Student t-test and GraphPad Prism 5.0 software. […] RNA was quantified by spectrophotometry at 260 and 280 nm and verified by agarose gel electrophoresis. The same quantity of RNA for every cell line was loaded on the gel. […] Signals were detected using Image LAS4010 (GE Healthcare). […] P values were calculated using a one-tailed Student t-test and GraphPad Prism 5.0 software. […] Signals were detected using Image LAS4010 (GE Healthcare). […] P values were calculated using a parametric, unpaired Student t-test, and GraphPad Prism 5.0 software.
Background: Immunoblotting shows a protein as a band on a membrane.

For data set [2] the following is noted: ref [9], [10]; cited from earlier work. An excerpt:
(§1) NT4 peptide is a tetrabranched peptide that binds to GAG chains of HSPG. […] NT4 binds cell lines of different human cancers, including colon adenocarcinoma, pancreas adenocarcinoma, bladder cancer, and breast cancer ([11], [12]).

For another data set, the system named is PgsA-745 cells. The following applies: Chinese hamster ovary cell mutant, deficient in xylosyltransferase; ref [13]; cited from earlier work.
Text: as §1

Data set [3] concerns cell lines of different human cancers, including colon adenocarcinoma, pancreas adenocarcinoma, bladder cancer, and breast cancer. The following applies: ref [11], [12]; cited from earlier work.
Text: as §1

On the set-up of data set [4]: method as in PMID 27255651. The note with it: compared with heparin and HS; ref [13]; cited from earlier work.
The test system of the next data set is cancer cells. The note with it: ref [20]; cited from earlier work. An excerpt: NT4 is already known to have major effects on cancer cells, such as inhibition of migration and invasion of ECM induced by FGF ([20]).

Entries after “also recorded” stand apart in the source; their conditions may differ.

As for (pyELYENKPRRPYIL)4K2K-beta-Ala [NT4], the “binding to glypican-4” value in the data set with glypican-4 is on record as “bound; also recorded: binds”. For the same substance, the “correlation of NT4 binding with sulfatase expression” value in data set [1] is given as “inversely correlated with sulfatase expression; also recorded: inversely correlated with expression of sulfatases”. Also, in data set [2], the “half-life (in words)” value is recorded as “long half-life” and the “stability to proteolytic enzymes” value was “stable to proteolytic enzymes”. In addition, the “binding to cells lacking GAG chains” value in the data set on PgsA-745 cells was “does not bind”. Besides, the “binding to human cancer cell lines” value in data set [3] is “binds”. The “binding to chondroitin sulfate” value in data set [4] is listed as “lower affinity”. In addition, the “effect on migration and invasion of ECM induced by FGF” value in the data set with cancer cells is “inhibition”.

Values taken from article PMC6759624, “Unraveling Heparan Sulfate Proteoglycan Binding Motif for Cancer Cell Selectivity” (Frontiers in Oncology, 2019).
